Results from US12385900B2, “Method for evaluating cytotoxicity of gas” (DAIKIN INDUSTRIES, LTD., priority 2018, dated 2025).

What was measured:
[1] = system: Human iPS cell-derived cardiomyocytes (iCell cardiomyocytes^2, CDI); assay: Cytotoxicity evaluation test: number of beats of cardiomyocytes during gas flow onto the cell culture medium; type: cell-based
Method: Human iPS cell-derived cardiomyocytes (iCell cardiomyocytes^2, CDI) were seeded into a 96-well half-area plate at a density of 40,000 cells/well, followed by culture in an incubator for 7 to 10 days. Subsequently, a Ca indicator (EarlyTox Cardiotoxicity Kit, Molecular Devices) was added at 30 μL/well to the cardiomyocytes. Subsequently, chlorodifluoromethane (Example) or difluoromethane (Reference Example) was allowed to flow onto the surface of the cell culture medium in a closed vessel at a flow rate of 50 mL/min. During the flow, the cell culture medium was maintained at a pH of 7.4, a temperature of 37° C., and an air pressure in the incubator of 101.3 kPa. The number of beats of cardiomyocytes from the start of the flow to 10 minutes after the start of the flow was measured by a fluorescence measurement with a confocal quantitative image cytometer (CQ1, Yokogawa Electric Corporation).

heart = settings: reported / known; cited from earlier work

Structure (SMILES) | change in the number of beats of cardiomyocytes [1] | Average number of beats (beats/30 sec) ([1]; human, 0 min, pH 7.4) | Average number of beats (beats/30 sec) ([1]; human, 10 min, pH 7.4) | effects on the heart (heart) | increase in the number of beats ([1]; 10 minutes after the start of the flow) | Average number of beats (beats/30 sec) ([1]; exposure time 0 min (start of flow), gas flow 50 mL/min onto medium surface, pH 7.4, 37° C., 101.3 kPa) | Average number of beats (beats/30 sec) ([1]; exposure time 10 min, gas flow 50 mL/min onto medium surface, pH 7.4, 37° C., 101.3 kPa)
FCF [difluoromethane] | almost no change | 16.1 beats/30 sec | 16.5 beats/30 sec | no significant effects on the heart |  |  | 
FC(F)Cl [chlorodifluoromethane] |  |  |  | has effects on the heart | 74% | 14.5 beats/30 sec | 25.3 beats/30 sec
